Measurements reported in patent EP1773779B1, “NICOTINIC RECEPTOR AGONISTS FOR THE TREATMENT OF INFLAMMATORY DISEASES” (Université Laval, priority 2004, dated 2006).

Tests used:
[1] = test system: Tumor necrosis factor (TNF) release; test: TNF release by LPS-stimulated human blood monocytes (ELISA); format: cell-based
Method: Human monocytes were isolated from the blood of asthmatic patients by Ficoll-paque density gradient, let to adhere to tissue culture plates and stimulated with LPS (100ng/ml) for 18 hours at 37°C with or without increasing concentrations of nicotine. The release of TNF, a potent pro-inflammatory mediator, was measured in the cell culture supernatant by the ELISA method. Results are expressed as a percentage release from LPS-stimulated untreated cells (Fig. 28).
Tumor necrosis factor (TNF) is a mediator released in inflammatory states. Human blood monocytes were stimulated in vitro with lipopolysaccharide (LPS) to produce large amounts of TNF, increasing doses of ASM-002 were added and the levels of TNF were measured (Fig. 37, EC50= 3µM, n=6, p= 0,0045 at 5 µm, 0,0014 at 10 µm and 0,0003 at 50 µm).

[2] = test system: dogs naturally sensitized to the roundworm Ascaris suum; test: Dog model of lung hyper-responsiveness (metacholine, lung resistance); format: in vivo; details: 12 hyperresponsive dogs, increasing concentrations of metacholine; Fig. 33
Method: (§1) In this model 12 dogs naturally sensitized to the roundworm Ascaris suum were used in a cross-over study design. Four groups of 3 dogs were randomly formed, exposed to the allergen, and each animal was left either untreated or received alternalively, ASM-002 (4mg/kg 2x day in the food), or prednisone (1mg/kg 1x day in the food), the most commonly used corticosteroid drug used to treat inflammation in asthma.
Hyper-responsiveness is described as the capacity of the lung to react (to increase lung resistance) to a non-specific external stimuli like metacholine or to allergens. A hyper-responsive allergen-sensitized dog (asthmatic) will react to lower concentrations of metacholine compared to a non allergic dog. Similarly, improvement in lung hyper-responsivenes is shown by an increase in metacholine concentrations necessary to induce the same level of lung resistance.
Increasing concentrations of metacholine were administered with or without treatment with ASM-002 or Prednisone™ and lung resistance recorded.

[3] = test system: mouse tracheal airway smooth muscle; test: Isometric study on isolated mouse tracheal rings pre-contracted with metacholine; details: cumulative doses of ASM-002; Fig. 34, p=0.002
Method: Tracheal rings were mounted isometrically to force transducers in organ baths containing Krebs bicarbonate solution at 37°C and bubbled with 95% O2- 5% CO2, pre-contracted with submaximal concentration of metacholine (10^-5) and cumulative doses of the analogs were added to the baths. Changes of tension are recorded. Results are expressed as a percentage of maximal contraction (Fig. 29).
(§2) As described previously, tracheal or bronchial rings were mounted isometrically to force transducers in organ baths containing Krebs bicarbonate solution at 37°C and bubbled with 95% O2- 5% CO2,pre-contracted with submaximal concentration of metacholine cumulative doses of ASM-002 added. Changes of tension are recorded.

[4] = test system: bronchial rings from resected human lungs; test: Isometric study on human bronchial rings pre-contracted with metacholine; details: cumulative doses of ASM-002; Fig. 36
Method: as §2

[5] = test system: dogs naturally sensitized to the roundworm Ascaris suum; test: Dog asthma model: cellular inflammation in bronchoalveolar lavages; format: in vivo; details: ASM-002 8 mg/kg (4mg/kg 2x day in the food), prednisone 1mg/kg 1x day in the food, n = 12; Fig. 32
Method: as §1
Cellular inflammation was evaluated in the bronchoalveolar lavages.

[6] = test system: Ovalbumin-sensitized mice; test: Lung inflammation in ovalbumin-sensitized mice (cells in broncho-alveolar lavage); format: in vivo; details: intra-nasally 0.5 to 4 mg/kg/d for 3 days, n = 8, Fig. 30
Method: Ovalbumin-sensitized mice (ri=8) were challenged with the allergen and simultaneously treated intra-nasally with increasing concentrations of ASM-002 (0.5 to 4 mg/kg/d) for 3 days. The number of cells recovered by broncho-alveolar lavage was used as a measure of lung inflammation.

[7] = test system: bronchial rings from dog's lungs; test: Isometric study on dog bronchial rings pre-contracted with metacholine; details: cumulative doses of ASM-002; Fig. 35, p=0.004
Method: as §2

[8] = test system: Leukotriene C4 (LTC4)production; test: LTC4 production by PAF-stimulated blood eosinophils (enzyme immunoassay); format: cell-based, Human; details: for LTC4: pre-incubated 18hours with analogs, then 1 µM PAF, untreated 1725.80
Method: Blood eosinophils, the most increased inflammatory cells in asthma, were isolated by negative selection using bead-conjugated anti-CD16 monoclonal antibody and magnetic activating cell sorting. Cells were pre-incubated for 18hours with the various DMPP analogs and then stimulated with 1 µM platelet-activating factor (PAF) to produce LTC4 which was measured by enzyme immunoassay. […] Table 1 Effects of DMPP and analogs on LTC4 release.
Leukotriene C4 (LTC4) is a inflammatory lipid mediator highly produced in asthma, it is released in large amounts by blood eosinophils.
Human blood eosinophils were isolated from blood of asthmatic patients, stimulated in vitro with platelet activating factor (PAF) to produce large amounts of LTC4 , and treated or not with 80 µM ASM-002.

[9] = test system: Ovalbumin-sensitized animals; test: Lung resistance to metacholine in mouse model of asthma (Flexi-vent); format: in vivo, mice; details: ASM-002 4mg/kg intra-nasally 3 days and 10 minutes prior to challenge; Salbutamol 10 minutes before; Fig. 31
Method: Lung response to a broncho-constrictive agent, metacholine, was measured by a Flexi-vent® apparatus. Ovalbumin-sensitized animals were treated intra-nasally with ASM-002 (4mg/kg) during 3 days and 10 minutes prior to the metacholine challenge and compared to untreated OVA-sensitized animals. A negative control group of un-sensitized animals and a positive control group that received Salbutamol (Ventolin) 10 minutes before the metacholine challenge were also included.

1,1-dimethyl-4-phenylhomopiperazinium iodide [ASM-002]
EC50 ([1]; LPS-stimulated human blood monocytes, increasing doses, n=6, Fig. 37, read-out: EC50, inhibition of TNF release): 3000 nM
TNF release ([1]; all drugs at 40 µM, mean of 5 subjects, Fig. 38): inhibits TNF release
dogs with decreased lung resistance / improved hyper-responsiveness [2]: 7 out of 12
relaxing effect on pre-contracted tracheas [3]: relaxing effect
relaxing effect on pre-contracted bronchi [4]: relaxing effect
cellular inflammation in the lungs [5]: inhibits significantly the cellular inflammation
ED50, cellular inflammation in the lungs [6]: 0.71 mg/kg
relaxing effect on pre-contracted bronchi [7]: relaxing effect
LTC4 production ([8]; 80 µM, PAF-stimulated eosinophils of asthmatic patients, 6 patients, Fig. 39, p=0.0007): significant inhibition
LTC4 [8]: 246.40 pg/mL
lung resistance induced by metacholine [9]: significant reduction (return to baseline levels)

CCC[N+]1(C)CCN(c2ccccc2)CC1 [ASM-004]
LTC4 [8]: 601.60 pg/mL

CC[N+]1(CC)CCN(c2ccccc2)CC1 [ASM-005]
TNF release ([1]; monocytes from asthmatic patients, LPS (100ng/ml) 18 hours at 37°C, increasing concentrations, Fig. 28): Except for ASM-005, all analogs tested had an inhibitory effect on TNF release

C[N+]1(C)CCN(c2ccccc2)CC1 [DMPP, Dimethylphenylpiperazinium, reference compound]
LTC4 [8]: 545.00 pg/mL

C[C@]12C=CC(=O)C=C1CC[C@@H]1[C@@H]2C(=O)C[C@@]2(C)[C@H]1CC[C@]2(O)C(=O)CO [Prednisone, prednisone, reference compound]
dogs with decreased lung resistance / improved hyper-responsiveness [2]: None of the 12 dogs

CC(C)(C)NCC(O)c1ccc(O)c(CO)c1 (stereo not shown) [Salbutamol, reference compound]
lung resistance induced by metacholine [9]: This effect is similar to that obtained with Salbutamol
